According to ChEMBL document CHEMBL3352542, “Synthesis, biological evaluation and molecular modeling study of 2-(1,3,4-thiadiazolyl-thio and 4-methyl-thiazolyl-thio)-quinazolin-4-ones as a new class of DHFR inhibitors” (Bioorg Med Chem Lett, 2014):
Activity calls are given as the source filed them. No cut-off for these calls is given here.

Assays:
Dihydrofolate reductase = target: T1, Dihydrofolate reductase (Bos taurus, UniProt P00376); assay: Inhibition of bovine liver DHFR
T1 sequence (P00376 whole entry): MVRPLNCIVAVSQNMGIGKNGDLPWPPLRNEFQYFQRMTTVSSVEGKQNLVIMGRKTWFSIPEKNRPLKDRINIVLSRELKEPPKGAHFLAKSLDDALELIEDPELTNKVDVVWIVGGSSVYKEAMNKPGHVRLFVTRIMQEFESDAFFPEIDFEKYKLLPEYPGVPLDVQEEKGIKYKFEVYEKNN

Staphylococcus aureus = assay: Antimicrobial activity against Staphylococcus aureus assessed as inhibition zone at 200 ug/disk after 24 hrs by disc-diffusion method; assay type: functional; conditions: read-out: IZ
Bacillus subtilis = assay: Antimicrobial activity against Bacillus subtilis assessed as inhibition zone at 200 ug/disk after 24 hrs by disc-diffusion method; assay type: functional; conditions: read-out: IZ
Escherichia coli = assay: Antimicrobial activity against Escherichia coli assessed as inhibition zone at 200 ug/disk after 24 hrs by disc-diffusion method; assay type: functional; conditions: read-out: IZ
Pseudomonas aeruginosa = assay: Antimicrobial activity against Pseudomonas aeruginosa assessed as inhibition zone at 200 ug/disk after 24 hrs by disc-diffusion method; assay type: functional; conditions: read-out: IZ
Candida albicans = assay: Antimicrobial activity against Candida albicans assessed as inhibition zone at 200 ug/disk after 24 hrs by disc-diffusion method; assay type: functional; conditions: read-out: IZ
CCRF-CEM = assay: Growth inhibition of human CCRF-CEM cells at 10 uM after 48 hrs; assay type: functional
HL-60(TB) = assay: Growth inhibition of human HL-60(TB) cells at 10 uM after 48 hrs; assay type: functional
K562 = assay: Growth inhibition of human K562 cells at 10 uM after 48 hrs; assay type: functional
MOLT-4 = assay: Growth inhibition of human MOLT4 cells at 10 uM after 48 hrs; assay type: functional
RPMI-8226 = assay: Growth inhibition of human RPMI8226 cells at 10 uM after 48 hrs; assay type: functional
SR = assay: Growth inhibition of human SR cells at 10 uM after 48 hrs; assay type: functional
A549 = assay: Growth inhibition of human A549 cells at 10 uM after 48 hrs; assay type: functional
HOP-92 = assay: Growth inhibition of human HOP92 cells at 10 uM after 48 hrs; assay type: functional
NCI-H226 = assay: Growth inhibition of human NCI-H226 cells at 10 uM after 48 hrs; assay type: functional
NCI-H23 = assay: Growth inhibition of human NCI-H23 cells at 10 uM after 48 hrs; assay type: functional
NCI-H460 = assay: Growth inhibition of human NCI-H460 cells at 10 uM after 48 hrs; assay type: functional
NCI-H522 = assay: Growth inhibition of human NCI-H522 cells at 10 uM after 48 hrs; assay type: functional
COLO 205 = assay: Growth inhibition of human COLO205 cells at 10 uM after 48 hrs; assay type: functional
HCC 2998 = assay: Growth inhibition of human HCC2998 cells at 10 uM after 48 hrs; assay type: functional
HCT-116 = assay: Growth inhibition of human HCT116 cells at 10 uM after 48 hrs; assay type: functional
HCT-15 = assay: Growth inhibition of human HCT15 cells at 10 uM after 48 hrs; assay type: functional
HT-29 = assay: Growth inhibition of human HT-29 cells at 10 uM after 48 hrs; assay type: functional
KM12 = assay: Growth inhibition of human KM12 cells at 10 uM after 48 hrs; assay type: functional
SW-620 = assay: Growth inhibition of human SW620 cells at 10 uM after 48 hrs; assay type: functional
SF-268 = assay: Growth inhibition of human SF268 cells at 10 uM after 48 hrs; assay type: functional
SF-295 = assay: Growth inhibition of human SF295 cells at 10 uM after 48 hrs; assay type: functional
SF-539 = assay: Growth inhibition of human SF539 cells at 10 uM after 48 hrs; assay type: functional
SNB-19 = assay: Growth inhibition of human SNB19 cells at 10 uM after 48 hrs; assay type: functional
SNB-75 = assay: Growth inhibition of human SNB75 cells at 10 uM after 48 hrs; assay type: functional
U-251 = assay: Growth inhibition of human U251 cells at 10 uM after 48 hrs; assay type: functional
LOX IMVI = assay: Growth inhibition of human LOXIMVI cells at 10 uM after 48 hrs; assay type: functional
Malme-3M = assay: Growth inhibition of human MALME-3M cells at 10 uM after 48 hrs; assay type: functional
M14 = assay: Growth inhibition of human M14 cells at 10 uM after 48 hrs; assay type: functional
MDA-MB-435 = assay: Growth inhibition of human MDA-MB-435 cells at 10 uM after 48 hrs; assay type: functional
SK-MEL-5 = assay: Growth inhibition of human SK-MEL-5 cells at 10 uM after 48 hrs; assay type: functional
UACC-257 = assay: Growth inhibition of human UACC257 cells at 10 uM after 48 hrs; assay type: functional
UACC-62 = assay: Growth inhibition of human UACC62 cells at 10 uM after 48 hrs; assay type: functional
OVCAR-3 = assay: Growth inhibition of human OVCAR3 cells at 10 uM after 48 hrs; assay type: functional
OVCAR-4 = assay: Growth inhibition of human OVCAR4 cells at 10 uM after 48 hrs; assay type: functional
OVCAR-5 = assay: Growth inhibition of human OVCAR5 cells at 10 uM after 48 hrs; assay type: functional
OVCAR-8 = assay: Growth inhibition of human OVCAR8 cells at 10 uM after 48 hrs; assay type: functional
NCI/ADR-RES = assay: Growth inhibition of human NCI-ADR-RES cells at 10 uM after 48 hrs; assay type: functional
786-0 = assay: Growth inhibition of human 786-0 cells at 10 uM after 48 hrs; assay type: functional
A498 = assay: Growth inhibition of human A498 cells at 10 uM after 48 hrs; assay type: functional
ACHN = assay: Growth inhibition of human ACHN cells at 10 uM after 48 hrs; assay type: functional
CAKI-1 = assay: Growth inhibition of human CAKI-1 cells at 10 uM after 48 hrs; assay type: functional
RXF 393 = assay: Growth inhibition of human RXF393 cells at 10 uM after 48 hrs; assay type: functional
SN12C = assay: Growth inhibition of human SN12C cells at 10 uM after 48 hrs; assay type: functional
TK-10 = assay: Growth inhibition of human TK10 cells at 10 uM after 48 hrs; assay type: functional
UO-31 = assay: Growth inhibition of human UO31 cells at 10 uM after 48 hrs; assay type: functional
PC-3 = assay: Growth inhibition of human PC3 cells at 10 uM after 48 hrs; assay type: functional
MCF7 = assay: Growth inhibition of human MCF7 cells at 10 uM after 48 hrs; assay type: functional
MDA-MB-231 = assay: Growth inhibition of human MDA-MB-231 cells at 10 uM after 48 hrs; assay type: functional
Hs-578T = assay: Growth inhibition of human Hs 578T cells at 10 uM after 48 hrs; assay type: functional
BT-549 = assay: Growth inhibition of human BT549 cells at 10 uM after 48 hrs; assay type: functional
T47D = assay: Growth inhibition of human T47D cells at 10 uM after 48 hrs; assay type: functional
MDA-MB-468 = assay: Growth inhibition of human MDA-MB-468 cells at 10 uM after 48 hrs; assay type: functional

## Cc1nc(N)sc1Sc1nc2ccc(Cl)cc2c(=O)n1-c1ccc(Cl)cc1
Dihydrofolate reductase
  IC50: 8 µM
Staphylococcus aureus
  zone of inhibition at 200 µg/disc: 8 mm
Bacillus subtilis
  zone of inhibition at 200 µg/disc: 8 mm
Escherichia coli
  zone of inhibition at 200 µg/disc: 8 mm
Pseudomonas aeruginosa
  zone of inhibition at 200 µg/disc: 8 mm
Candida albicans
  zone of inhibition at 200 µg/disc: 8 mm
CCRF-CEM
  growth inhibition (GI): inactive
HL-60(TB)
  growth inhibition (GI): inactive
K562
  growth inhibition (GI): inactive
MOLT-4
  growth inhibition (GI): inactive
RPMI-8226
  growth inhibition (GI): inactive
SR
  growth inhibition (GI): inactive
A549
  growth inhibition (GI): inactive
HOP-92
  growth inhibition (GI): inactive
NCI-H226
  growth inhibition (GI): inactive
NCI-H23
  growth inhibition (GI): inactive
NCI-H460
  growth inhibition (GI): inactive
NCI-H522
  growth inhibition (GI): inactive
COLO 205
  growth inhibition (GI): inactive
HCC 2998
  growth inhibition (GI): inactive
HCT-116
  growth inhibition (GI): inactive
HCT-15
  growth inhibition (GI): inactive
HT-29
  growth inhibition (GI): inactive
KM12
  growth inhibition (GI): inactive
SW-620
  growth inhibition (GI): inactive
SF-268
  growth inhibition (GI): inactive
SF-295
  growth inhibition (GI): inactive
SF-539
  growth inhibition (GI): inactive
SNB-19
  growth inhibition (GI): inactive
SNB-75
  growth inhibition (GI): inactive
U-251
  growth inhibition (GI): inactive
LOX IMVI
  growth inhibition (GI): inactive
Malme-3M
  growth inhibition (GI): inactive
M14
  growth inhibition (GI): inactive
MDA-MB-435
  growth inhibition (GI): inactive
SK-MEL-5
  growth inhibition (GI): inactive
UACC-257
  growth inhibition (GI): inactive
UACC-62
  growth inhibition (GI): inactive
OVCAR-3
  growth inhibition (GI): inactive
OVCAR-4
  growth inhibition (GI): inactive
OVCAR-5
  growth inhibition (GI): inactive
OVCAR-8
  growth inhibition (GI): inactive
NCI/ADR-RES
  growth inhibition (GI): inactive
786-0
  growth inhibition (GI): inactive
A498
  growth inhibition (GI): inactive
ACHN
  growth inhibition (GI): inactive
CAKI-1
  growth inhibition (GI): inactive
RXF 393
  growth inhibition (GI): inactive
SN12C
  growth inhibition (GI): inactive
TK-10
  growth inhibition (GI): inactive
UO-31
  growth inhibition (GI): inactive
PC-3
  growth inhibition (GI): inactive
MCF7
  growth inhibition (GI): inactive
MDA-MB-231
  growth inhibition (GI): inactive
Hs-578T
  growth inhibition (GI): inactive
BT-549
  growth inhibition (GI): inactive
T47D
  growth inhibition (GI): inactive
MDA-MB-468
  growth inhibition (GI): inactive
